# According to US10500170B2, “Composition and method for treating neurological disease” (Osmotica Kereskedelmi és Szolgáltató Korlátolt Felelõsségû …, priority 2018, dated 2019):
# Legend:
# [1] = cited from earlier work
# plasma proteins = conditions: concentration range of 0.1 to 2.0 μg/mL; cited from earlier work
# [2] = cited from earlier work; remark: listed apart in the source
# [3] = Solubility of amantadine HCl in water; format: physicochemical; conditions: 160 mg, 240 mg and 320 mg of amantadine HCl
compound,measurement,setting,value
"NC12CC3CC(CC(C3)C1)C2 [Amantadine, amantadine]",volume of distribution,[1]; after intravenous administration,3 to 8 L/kg
same,reduction of renal clearance of amantadine,[1]; coadministration of quinine or quinidine,about 30%
same,administered dose excreted unchanged in urine,[1]; in vivo,approximately 85%
same,metabolism as share of the total clearance,[1]; in vivo,5-15%
same,bound to plasma proteins,plasma proteins,67%
same,elimination half-life change in renal insufficiency,[2]; creatinine clearance less than 40 mL/min/1.73 m^2,increases two to three fold or greater
same,elimination half-life,[2]; patients on chronic maintenance hemodialysis,averages eight days
same,Solubility in water,[3],soluble in 250 mL water
